Patent US9504675B2, “Alpha-ketoheterocycles and methods of making and using” (The Scripps Research Institute, priority 2011, dated 2016)

The compounds below were run against T1, recombinant rat FAAH (rFAAH) (Rattus norvegicus, UniProt P97612) (assay: Enzyme assay: inhibition of purified recombinant rat FAAH, 14C-oleamide hydrolysis, Ki by Dixon plot). Settings: Ki, Table 2, (R)-enantiomer, 1,2,3,4-tetrahydronaphthalene C2 acyl side chain.
T1 construct: The truncated rat FAAH (rFAAH) was expressed in E. coli and purified; made in house; host or cells: Escherichia coli
T1 sequence (P97612 30-579 limits assumed): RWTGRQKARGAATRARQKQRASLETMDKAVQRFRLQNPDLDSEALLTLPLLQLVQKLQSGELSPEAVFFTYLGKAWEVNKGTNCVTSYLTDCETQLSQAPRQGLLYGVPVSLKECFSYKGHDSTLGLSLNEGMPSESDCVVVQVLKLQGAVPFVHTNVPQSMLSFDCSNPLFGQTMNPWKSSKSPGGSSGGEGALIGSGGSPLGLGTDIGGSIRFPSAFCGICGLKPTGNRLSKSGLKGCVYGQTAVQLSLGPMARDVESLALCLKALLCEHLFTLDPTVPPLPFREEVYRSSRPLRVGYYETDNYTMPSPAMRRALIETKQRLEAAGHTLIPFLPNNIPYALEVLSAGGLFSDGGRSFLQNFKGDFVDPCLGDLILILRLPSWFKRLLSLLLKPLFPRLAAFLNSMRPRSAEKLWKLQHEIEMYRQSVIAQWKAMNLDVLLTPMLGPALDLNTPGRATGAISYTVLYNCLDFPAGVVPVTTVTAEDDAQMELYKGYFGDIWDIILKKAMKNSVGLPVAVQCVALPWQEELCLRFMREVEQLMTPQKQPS
Type: biochemical
Method: Enzyme assays were performed at 20-23° C. with purified recombinant rat FAAH expressed in Escherichia coli or with solubilized COS-7 membrane extracts from cells transiently transfected with human FAAH cDNA (where specifically indicated) in a buffer of 125 mM Tris/1 mM EDTA/0.2% glycerol/0.02% Triton X-100/0.4 mM Hepes, pH 9.0.
^14C-labeled oleamide was prepared from ^14C-labeled oleic acid. The truncated rat FAAH (rFAAH) was expressed in E. coli and purified. The purified recombinant rFAAH was used in the inhibition assays unless otherwise indicated. The full-length human FAAH (hFAAH) was expressed in COS-7 cells as described, and the lysate of hFAAH-transfected COS-7 cells was used in the inhibition assays where explicitly indicated.
The inhibition assays were performed as follows. […] The enzyme reaction was terminated by transferring 20 μL of the reaction mixture to 500 μL of 0.1 N HCl at three different time points. The ^14C-labeled oleamide (substrate) and oleic acid (product) were extracted with EtOAc and analyzed by TLC as detailed. The Ki of the inhibitor was calculated using a Dixon plot as described (standard deviations are provided in the Supporting Information tables).

Compound	Ki
O=C(c1ncco1)C1CCc2cc(-c3ccccc3)ccc2C1 (single isomer, unassigned) [(R)-3, Oxazol-2-yl(6-phenyl-1,2,3,4-tetrahydronaphthalen-2-yl)methanone]	460 nM
COC(=O)c1cnc(C(=O)C2CCc3cc(-c4ccccc4)ccc3C2)o1 (single isomer, unassigned) [(R)-4, Methyl 2-(6-Phenyl-1,2,3,4-tetrahydronaphthalene-2-carbonyl)oxazole-5-carboxylate]	1400 nM
N#Cc1cnc(C(=O)C2CCc3cc(-c4ccccc4)ccc3C2)o1 (single isomer, unassigned) [(R)-5, 2-(6-Phenyl-1,2,3,4-tetrahydronaphthalene-2-carbonyl)oxazole-5-carbonitrile]	62 nM
O=C(c1ncc(-c2ccccn2)o1)C1CCc2cc(-c3ccccc3)ccc2C1 (single isomer, unassigned) [(R)-6, (6-Phenyl-1,2,4-tetrahydronaphthalen-2-yl)(5-(pyridin-2-yl)oxazol-2-yl)methanone]	240 nM
COC(=O)c1cccc(-c2cnc(C(=O)C3CCc4cc(-c5ccccc5)ccc4C3)o2)n1 (single isomer, unassigned) [(R)-7, Methyl 6-(2-(6-Phenyl-1,2,3,4-tetrahydronaphthalene-2-carbonyl)oxazol-5-yl)picolinate]	700 nM
O=C(O)c1cccc(-c2cnc(C(=O)C3CCc4cc(-c5ccccc5)ccc4C3)o2)n1 (single isomer, unassigned) [(R)-8, 6-(2-(6-Phenyl-1,2,3,4-tetrahydronaphthalene-2-carbonyl)oxazol-5-yl)picolinic acid]	500 nM
O=C(c1ncco1)C1CCc2cc(Oc3ccccc3)ccc2C1 (single isomer, unassigned) [(R)-9, Oxazol-2-yl(6-phenoxy-1,2,3,4-tetrahydronaphthalen-2-yl)methanone]	410 nM
COC(=O)c1cnc(C(=O)C2CCc3cc(Oc4ccccc4)ccc3C2)o1 (single isomer, unassigned) [(R)-10, Methyl 2-(6-Phenoxy-1,2,3,4-tetrahydronaphthalene-2-carbonyl)oxazole-5-carboxylate]	59 nM
N#Cc1cnc(C(=O)C2CCc3cc(Oc4ccccc4)ccc3C2)o1 (single isomer, unassigned) [(R)-11, 2-(6-Phenoxy-1,2,3,4-tetrahydronaphthalene-2-carbonyl)oxazole-5-carbonitrile]	54 nM
O=C(c1ncc(-c2ccccn2)o1)C1CCc2cc(Oc3ccccc3)ccc2C1 (single isomer, unassigned) [(R)-12, (6-Phenoxy-1,2,3,4-tetrahydronaphthalen-2-yl)(5-(pyridin-2-yl)oxazol-2-yl)methanone]	290 nM
COC(=O)c1cccc(-c2cnc(C(=O)C3CCc4cc(Oc5ccccc5)ccc4C3)o2)n1 (single isomer, unassigned) [(R)-13, Methyl 6-(2-(6-Phenoxy-1,2,3,4-tetrahydronaphthalene-2-carbonyl)oxazol-5-yl)picolinate]	870 nM
O=C(O)c1cccc(-c2cnc(C(=O)C3CCc4cc(Oc5ccccc5)ccc4C3)o2)n1 (single isomer, unassigned) [(R)-14, 6-(2-(6-Phenoxy-1,2,3,4-tetrahydronaphthalene-2-carbonyl)oxazol-5-yl)picolinic acid]	220 nM
O=C(c1ncco1)C1CCc2cc(OCc3ccccc3)ccc2C1 (single isomer, unassigned) [(R)-15, (6-(Benzyloxy)-1,2,3,4-tetrahydronaphthalen-2-yl)(oxazol-2-yl)methanone]	87 nM
COC(=O)c1cnc(C(=O)C2CCc3cc(OCc4ccccc4)ccc3C2)o1 (single isomer, unassigned) [(R)-16, Methyl 2-(6-(Benzyloxy)-1,2,3,4-tetrahydronaphthalene-2-carbonyl)oxazole-5-carboxylate]	53 nM
N#Cc1cnc(C(=O)C2CCc3cc(OCc4ccccc4)ccc3C2)o1 (single isomer, unassigned) [(R)-17, 2-(6-(Benzyloxy)-1,2,3,4-tetrahydronaphthalene-2-carbonyl)oxazole-5-carbonitrile]	120 nM
O=C(c1ncc(-c2ccccn2)o1)C1CCc2cc(OCc3ccccc3)ccc2C1 (single isomer, unassigned) [(R)-18, (6-(Benzyloxy)-1,2,3,4-tetrahydronaphthalen-2-yl)(5-(pyridin-2-yl)oxazol-2-yl)methanone]	300 nM
COC(=O)c1cccc(-c2cnc(C(=O)C3CCc4cc(OCc5ccccc5)ccc4C3)o2)n1 (single isomer, unassigned) [(R)-19, Methyl 6-(2-(6-(Benzyloxy)-1,2,3,4-tetrahydronaphthalene-2-carbonyl)oxazol-5-yl)picolinate]	4500 nM
O=C(O)c1cccc(-c2cnc(C(=O)C3CCc4cc(OCc5ccccc5)ccc4C3)o2)n1 (single isomer, unassigned) [(R)-20, 6-(2-(6-(Benzyloxy)-1,2,3,4-tetrahydronaphthalene-2-carbonyl)oxazol-5-yl)picolinic acid]	740 nM

Same assay, conditions: Ki, Table 3, (R)-enantiomer, indane C2 acyl side chain

Compound	Ki
O=C(c1ncco1)C1Cc2ccc(-c3ccccc3)cc2C1 (single isomer, unassigned) [(R)-22, Oxazol-2-yl(5-phenylindan-2-yl)methanone]	140 nM
O=C(c1ncc(-c2ccccn2)o1)C1Cc2ccc(-c3ccccc3)cc2C1 (single isomer, unassigned) [(R)-23, (5-Phenylindan-2-yl)-(5-(pyridin-2-yl)oxazol-2-yl)methanone]	600 nM
O=C(c1ncco1)C1Cc2ccc(Oc3ccccc3)cc2C1 (single isomer, unassigned) [(R)-26, Oxazol-2-yl(5-phenoxyindan-2-yl)methanone]	200 nM
O=C(c1ncc(-c2ccccn2)o1)C1Cc2ccc(Oc3ccccc3)cc2C1 (single isomer, unassigned) [(R)-27, (5-Phenoxyindan-2-yl)(5-(pyridin-2-yl)oxazol-2-yl)methanone]	42 nM
COC(=O)c1cccc(-c2cnc(C(=O)C3Cc4ccc(Oc5ccccc5)cc4C3)o2)n1 (single isomer, unassigned) [(R)-28]	790 nM
O=C(O)c1cccc(-c2cnc(C(=O)C3Cc4ccc(Oc5ccccc5)cc4C3)o2)n1 (single isomer, unassigned) [(R)-29, 6-(2-(5-Phenoxyindane-2-carbonyl)oxazol-5-yl)picolinic acid]	550 nM
O=C(c1ncc(-c2ccccn2)o1)C1Cc2ccc(OCc3ccccc3)cc2C1 (single isomer, unassigned) [(R)-31, (5-(Benzyloxy)indan-2-yl)(5-(pyridin-2-yl)oxazol-2-yl)methanone]	110 nM
COC(=O)c1cccc(-c2cnc(C(=O)C3Cc4ccc(OCc5ccccc5)cc4C3)o2)n1 (single isomer, unassigned) [(R)-32, Methyl 6-(2-(5-(Benzyloxy)indane-2-carbonyl)oxazol-5-yl)picolinate]	130 nM
O=C(O)c1cccc(-c2cnc(C(=O)C3Cc4ccc(OCc5ccccc5)cc4C3)o2)n1 (single isomer, unassigned) [(R)-33, 6-(2-(5-(Benzyloxy)indane-2-carbonyl)oxazol-5-yl)picolinic acid]	660 nM

Same assay, conditions: Ki, Table 3, racemate (enantiomers not separable), indane C2 acyl side chain

Compound	Ki
COC(=O)c1cccc(-c2cnc(C(=O)C3Cc4ccc(-c5ccccc5)cc4C3)o2)n1 (racemic) [Compound 24, Methyl 6-[2-(5-Phenylindane-2-carbonyl)oxazol-5-yl]pyridine-2-carboxylate]	6.2 nM
O=C(O)c1cccc(-c2cnc(C(=O)C3Cc4ccc(-c5ccccc5)cc4C3)o2)n1 (racemic) [Compound 25, 6-[2-(5-Phenylindane-2-carbonyl)oxazol-5-yl]pyridine-2-carboxylic Acid]	57 nM

Same assay, conditions: Ki, Table 4, (R)-enantiomer, additional FAAH inhibitors

Compound	Ki
O=C(c1nnco1)C1CCc2cc(Oc3ccccc3)ccc2C1 (single isomer, unassigned) [(R)-34, (1,3,4-Oxadlazol-2-yl)(6-phenoxy-1,2,3,4-tetrahydronaphthalen-2-yl)methanone]	1.4 nM
COC(=O)c1nnc(C(=O)C2CCc3cc(Oc4ccccc4)ccc3C2)o1 (single isomer, unassigned) [(R)-35, Methyl 5-(6-Phenoxy-1,2,3,4-tetrahydronaphthalene-2-carbonyl)-[1,3,4]oxadiazole-2-carboxylate]	1.6 nM

Same assay, conditions: Table 3, racemate (enantiomers not separable), indane C2 acyl side chain; read-out: Ki

Ki	Compound
24 nM	O=C(c1ncco1)C1Cc2ccc(OCc3ccccc3)cc2C1 (racemic) [Compound 30, (5-(Benzyloxy)indan-2-yl)(oxazol-2-yl)methanone]
